The values that follow come from patent US20110076318A1, “RETINOID-CONTAINING SUSTAINED RELEASE INTRAOCULAR IMPLANTS AND RELATED MATTERS” (Allergan, Inc., priority 2004, published 2011).

Like-named read-outs stand apart in the source and are kept apart here.

In one data set the test system is photoreceptors. Nature of the data set: Rhodopsin mutant transgenic rat models of retinal degeneration. As to conditions: i.p., S334ter line 3 and line 4. The class given is in vivo, Transgenic S334ter rats. Here is the method:
The objective of this study was to determine the efficacy of various retinoids in preventing retinal damage or improving retinal survival in rhodopsin mutant transgenic rat models of retinal degeneration. The overall goal of the research was to investigate potential photoreceptor survival in mutant rhodopsin transgenic rats using RAR α, RAR β γ, and RXR retinoid agonists.
The experimental design was straightforward. A compound was injected daily to line 3 and every two days for line 4 animals (i.p.) for a given period and animals were sacrificed at the end by CO2 overdose followed immediately by vascular perfusion of mixed aldehydes. Two litters of rats were used:
1. Transgenic S334ter-3 rats. Line 3 bears a rhodopsin mutation S334ter. […] Injection of a compound will be given daily from PD 6 (post-delivery day 6) to PD 20.
2. Transgenic S334ter-4 rats. Line 4 bears a rhodopsin mutation S334ter. Animals of this line experience a 80% loss of photoreceptors by 60 days after birth. The ONL is reduced to one row of nuclei. Injection of a compound will be given every other day from PD 25 to PD 60.
For the line 3 animals, treatment started at PD 6 and the endpoint was PD 20. For the line 4, injection began at PD 25 and ended at PD60 when eyes were harvested. Eyes were embedded in an Epon/Araldite mixture for sectioning at 1 μm thickness along the vertical meridian. Protection of photoreceptors was be evaluated by counting the rows of nuclei in the outer nuclear layer.
The outcome was a measure of retinal outer layer thickness, and cytology over an 8 week period. Compounds included the retinoid agonists tazarotene (RAR β γ), AGN 195183 (RAR α) and AGN 194204 (RXR). […] This is a fairly harsh model and as such the modest improvement by tazarotene is quite significant.

The subject of data set [1] is PVR induced by human RPE cells. Description: PVR model with retinoid implants, Fastenberg scale. In kind it is in vivo. As to conditions: at 28 days; 10% loaded PLA/PLGA implants, intravitreal. An excerpt:
PLA and PLGA implants 1.5 mm in diameter and 3 mm in length were fabricated by extrusion of the polymer drug blend. Tazarotenic acid (the free acid of Tazarotene) Tazarotene and 13-cis-retinoic acid were loaded into the implants at 10% concentrations. Briefly, pigmented rabbits were vitrectomized followed by intravitreal injection of 500,000 human RPE cells. After injection of the RPE cells the retinoid implants were placed into the vitreous and anchored to the sclera with the suture used to close the sclerotomy.
The eyes were examined weekly for 4 weeks. Severity of PVR was graded based on the Fastenberg scale. At 4 weeks gross pathology and limited histopathology were conducted.

In a further data set the test system is PVR. As to conditions: orally administered, retrospective study; cited from earlier work.
In data set [2] the test system is traction retinal detachment (PVR). As to conditions: cited from earlier work.
The next data set concerns RPE proliferation. As to conditions: biphasic, read-out: IC50, prevention of RPE proliferation in-vitro (biphasic), cited from earlier work.
The conditions of data set [3]: cited from earlier work.
Data set [4] in a line: Plasma concentrations after topical and oral dosing of tazarotene. In kind it is in vivo, patients. As to conditions: for Cmax: human; for Cmax / TAZAROTENIC ACID Ctrough: plasma. Here is the method: […] For the most part tazarotene is not observed in the plasma after topical or oral administration. Facile hydrolysis by pre-systemic metabolism rapidly generates the free acid. […] It is important to note that these are plasma concentrations and the eye plasma distribution ratio is 0.02. Over 90% of all patients in the phase 3 clinical trials had concentrations of the parent compound, tazarotene, <1 ng/mL with the highest being 6 ng/mL.
(§1) Oral delivery of 1.1 mg and 6 mg multiple doses led to 28.9 ng/mL and 227 ng/ml peak levels with a 2.56 ng/mL trough. This corresponds to a maximum possible 4 ng/mL ocular level for the highest dose. FIG. 11 depicts the tissue distribution of tazarotenic acid. The eyes show a 2% tissue/plasma ration in the rat. It should be noted that tazarotenic acid is 99% protein bound and distribution is limited to unbound drug.

A short description of data set [5]: Protein binding of tazarotenic acid. In kind it is in vitro ADME.
Data set [6] can be described thus: Tissue-to-plasma distribution after daily topical 14C-tazarotene. In kind it is in vivo. As to conditions: rat. The method, then:
FIG. 11 is a graph illustrating tissue-to-plasma concentration ratios of after twenty-one days of daily topical application of 14C-tazarotene to the skin of rats.
as §1

Data set [7] in a line: Ocular disposition of tazarotene and tazarotenic acid after intravitreal and subconjunctival dosing. In kind it is in vivo, albino rabbits. The method, then: General disposition of intraocular and subconjunctivally administered tazarotene and tazarotenic acid was assessed. Briefly, albino rabbits were dosed via intraocular injection with 1.25 μg of tazarotene or tazarotenic acid. Injection was made mid-vitreous. After dosing the vitreous, retina and aqueous humor concentrations of tazarotene and tazarotenic acid were determined at 0.5, 1, 2, 4, 8, 12 and 24 hours post dosing. […] Additionally, the tazarotenic acid concentrations asymptotically approach approximately 10 ng/mL.
Tazarotene was also dosed in the subconjunctival space. Three dosage forms were evaluated: A tazarotene aqueous suspension (1 mg), a tazarotene subconjunctival olive oil solution (1 mg), and an tazarotene poly (lactide-co-glycolide) microsphere suspension. After dosing, the vitreous, retina and aqueous humor concentrations of tazarotene and tazarotenic acid were determined at 2, 8, 24, 48, 96, 168 and 336 hours post dosing. It was observed that subconjunctival administration achieved significant levels of tazarotene and tazarotenic acid in the ocular tissues.
Briefly, albino rabbits were dosed via intraocular injection with 1.25 μg of tazarotene or tazarotenic acid. Injection was made mid-vitreous. After dosing the vitreous, retina and aqueous humor concentrations of tazarotene and tazarotenic acid were determined at 0.5, 1, 2, 4, 8, 12 and 24 hours post dosing. […]

Where [8] appears, read: Five to ten μg in a silicone oil tamponade.

For the molecule `CC(/C=C/[C@@H]1C[C@]1(C)c1ccc2c(c1)C(C)(C)CCC2(C)C)=C\C(=O)O` [AGN 194204], in the data set with photoreceptors, the “protection of photoreceptors (outer nuclear layer)” value is reported as “Tazarotene was the only compound to show efficacy”.
The same measure, in the same setting: for `CC1(C)CCC(C)(C)c2c1cc(C(=O)Nc1cc(F)c(C(=O)O)c(F)c1)c(O)c2Cl` [AGN 195183] the value was “Tazarotene was the only compound to show efficacy”.
Take `CC1=C(/C=C/C(C)=C/C=C/C(C)=C\C(=O)O)C(C)(C)CCC1` [Isotretinoin, 13-cis-retinoic acid]: the “eyes progressed to traction retinal detachment” value in data set [1] stood at 22%. Besides, the “effect on PVR and retinal attachment” value with PVR was “effective at decreasing PVR and increasing the rate of retinal attachment”. Besides, in data set [2] (setting [8]), the “traction retinal detachment in animal model of PVR” value is reported as “effectively prevent traction retinal detachment”.
As to `CC1=C(/C=C/C(C)=C/C=C/C(C)=C/C(=O)O)C(C)(C)CCC1` [RA, All trans-retinoic acid], the IC50 was 0.01 nM in the data set with RPE proliferation (first value) and 17 nM with RPE proliferation (second value). Besides, the “traction retinal detachment in animal model of PVR” value in data set [2] (setting [8]) is reported as “effectively prevent traction retinal detachment”; in data set [2] (Ten and 15 μg in 1-% hyaluronic acid and BSS), “reduced traction retinal detachment”. In addition, the “ocular toxicity by histopathology and ophthalmoscopic examination” value in [3] (five to ten μg in silicone oil) is on record as “no ocular toxicity”. Further, the “concentration well tolerated with no ERG changes” value in data set [3] (in vivo) is reported as “up to 15 μg/mL”.
The half-life is the time in which the quantity being followed falls by half. Take `CC1(C)CCSc2ccc(C#Cc3ccc(C(=O)O)cn3)cc21` [Tazarotenic Acid, 4,4-dimethyl-6-[2′-(5″-carboxy-2″-pyridyl)-ethynyl]-thiochroman]: the “maximum possible ocular level” value in data set [4] (highest oral dose (6 mg)) was at most 4 ng/mL. The Cmax in [4] (po, 1.1 mg/Day, Oral 1.1 mg/Day, read-out: TAZAROTENIC ACID Cmax) is 28.9 ng/mL; in data set [4] (po, 3 mg/Day, Oral 3.0 mg/Day, read-out: TAZAROTENIC ACID Cmax), 81.6 ng/mL; in [4] (po, 6 mg/Day, Oral 6.0 mg/Day, read-out: TAZAROTENIC ACID Cmax), 227 ng/mL; in [4] (topical or ocular, 0.1 % gel, Topical Gel 0.1% 2% BSA, read-out: TAZAROTENIC ACID Cmax) it was 0.241 ng/mL; in [4] (topical or ocular, 0.1 % gel, Topical Gel 0.1% 7% BSA, read-out: TAZAROTENIC ACID Cmax) it was 0.83 ng/mL; in data set [4] (topical or ocular, 0.1 % gel, Topical Gel 0.1% 15% BSA, read-out: TAZAROTENIC ACID Cmax), 4.8 ng/mL. Moreover, the Cmax in [4] (topical or ocular, 0.1 % gel, Topical Gel 0.1% 20% BSA, read-out: TAZAROTENIC ACID Cmax) is 12 ng/mL; in data set [4] (topical or ocular, 0.1 % gel, Topical Gel 0.1% Phase 3, in 90%, read-out: TAZAROTENIC ACID Cmax) it was below 1 ng/mL; in [4] (topical or ocular, range over topical studies, read-out: Tazarotenic acid plasma concentrations (Cmax) from topical administration), 0.25 to 12 ng/mL. For the same molecule, the “TAZAROTENIC ACID Ctrough” value in data set [4] (Oral 6.0 mg/Day, listed as TAZAROTENIC ACID) is on record as “Ctrough 2.56 ng/mL”; in data set [4] (Oral 6.0 mg/Day, listed as tazarotenic acid), 2.56 ng/mL. In data set [5], the protein bound is recorded as 99%. Moreover, the eyes tissue/plasma ratio in data set [6] (FIG. 11) is given as 2%. Also, the Kp at 21 days in data set [6] (eye, topical, read-out: eye plasma distribution ratio) was found to be 0.02. In addition, the “eyes progressed to traction retinal detachment” value in data set [1] turned out to be 12%. Further, the “maximal vitreous concentration of tazarotenic acid (asymptote)” value in [7] (after intraocular injection of 1.25 μg tazarotene) is listed as “approximately 10 ng/mL”. Further, the half-life in data set [7] (albino, rabbit, vitreous, other: intraocular injection, mid-vitreous, 1.25 ug, midvitreous dosing of 1.25 μg tazarotenic acid, read-out: vitreous elimination half-life (converted)) is 4.24 h.
